Measured values: ChEMBL document CHEMBL1201862, “PubChem BioAssay data set” (2004)
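How tested: cells in 96-well plates exposed to compound for 48 hours at five concentrations. GI50 = concentration required for 50% inhibition of growth.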 Calls of active or inactive are those of the source. Rule as the data show it: active = GI50 up to about 1.1 µM and inactive = higher.

Tests used:
Test in all cases: DTP human tumour cell line panel, 48 h
[1] = system: KM12
[2] = system: NCI/ADR-RES
[3] = system: NCI-H226
[4] = system: UACC-62
[5] = system: ACHN
[6] = system: SN12C
[7] = system: MDA-MB-435
[8] = system: LOX IMVI
[9] = system: HT-29
[10] = system: SF-268
[11] = system: MDA-N
[12] = system: CCRF-CEM
[13] = system: SK-MEL-5
[14] = system: HOP-62
[15] = system: 786-0
[16] = system: COLO 205
[17] = system: A498
[18] = system: HL-60
[19] = system: SW-620
[20] = system: DU-145
[21] = system: HCC 2998
[22] = system: Hs-578T
[23] = system: OVCAR-8
[24] = system: RXF 393
[25] = system: SF-295
[26] = system: SK-MEL-28
[27] = system: UO-31
[28] = system: MCF7
[29] = system: TK-10
[30] = system: PC-3
[31] = system: OVCAR-5
[32] = system: SK-MEL-2
[33] = system: HCT-15
[34] = system: HOP-92
[35] = system: A549
[36] = system: NCI-H460
[37] = system: U-251
[38] = system: NCI-H522
[39] = system: IGROV-1
[40] = system: RPMI-8226
[41] = system: SR
[42] = system: OVCAR-3
[43] = system: T47D
[44] = system: HCT-116
[45] = system: Malme-3M
[46] = system: NCI-H23
[47] = system: EKVX
[48] = system: UACC-257
[49] = system: SNB-19
[50] = system: M14
[51] = system: CAKI-1
[52] = system: MDA-MB-231
[53] = system: BT-549

Clc1ccc(NCc2nnc(COc3ccc(OCc4nnc(CNc5ccc(Cl)cc5)o4)c(Cl)c3)o2)cc1 was tested, and the GI50 [1] was 26.9 µM (inactive), the GI50 [2] was 5.68 µM (inactive) and the GI50 [3] was 23.3 µM (inactive). The GI50 [4] was 4.66 µM (inactive), the GI50 [5] was 38.1 µM (inactive) and the GI50 [6] was 43.5 µM (inactive). For the same compound, the GI50 [7] was 18.5 µM (inactive), the GI50 [8] was 20.3 µM (inactive) and the GI50 [9] was 27.2 µM (inactive). For the same compound, the GI50 [10] was 33.7 µM (inactive), the GI50 [11] was 20.4 µM (inactive) and the GI50 [12] was 11.2 µM (inactive). The GI50 [13] was 5.7 µM (inactive), the GI50 [14] was > 100 µM (inactive) and the GI50 [15] was > 100 µM (inactive). For the same compound, the GI50 [16] was 10.9 µM (inactive), the GI50 [17] was 28.4 µM (inactive) and the GI50 [18] was 3.52 µM (inactive). For the same compound, the GI50 [19] was 38.2 µM (inactive), the GI50 [20] was > 100 µM (inactive) and the GI50 [21] was > 100 µM (inactive). The GI50 [22] was 28.1 µM (inactive), the GI50 [23] was 62.7 µM (inactive) and the GI50 [24] was 47.3 µM (inactive). For the same compound, the GI50 [25] was 20.7 µM (inactive), the GI50 [26] was 75.3 µM (inactive) and the GI50 [27] was 26.4 µM (inactive). The GI50 [28] was 17.5 µM (inactive), the GI50 [29] was 56.9 µM (inactive) and the GI50 [30] was 24 µM (inactive). For the same compound, the GI50 [31] was > 100 µM (inactive), the GI50 [32] was 14 µM (inactive) and the GI50 [33] was 43.6 µM. For the same compound, the GI50 [34] was 13.3 µM (inactive), the GI50 [35] was 49 µM (inactive) and the GI50 [36] was 42.6 µM (inactive). For the same compound, the GI50 [37] was 39.3 µM (inactive), the GI50 [38] was 10.6 µM (inactive) and the GI50 [39] was 17.2 µM (inactive). The GI50 [40] was 9.51 µM (inactive), the GI50 [41] was 303 nM (active) and the GI50 [42] was 29.7 µM (inactive). For the same compound, the GI50 [43] was > 100 µM (inactive), the GI50 [44] was > 100 µM (inactive) and the GI50 [45] was 51.1 µM (inactive). For the same compound, the GI50 [46] was 44 µM (inactive), the GI50 [47] was 22.8 µM (inactive) and the GI50 [48] was 43.1 µM (inactive). The GI50 [49] was > 100 µM (inactive), the GI50 [50] was > 100 µM (inactive) and the GI50 [51] was 28.7 µM (inactive). The GI50 [52] was 15.7 µM (inactive) and the GI50 [53] was 22.3 µM (inactive).
